From patent US12234245B2, “Sulfonimidamide compounds as inhibitors of interleukin-1 activity” (Genentech, Inc., priority 2018, dated 2025)
Like-named read-outs stand apart in the source and are kept apart here.

How the values were obtained:
Format in all cases: cell-based
PBMCs = experiment: CTG (CellTiter-Glo) viability assay in PBMCs; conditions: LPS and nigericin stimulated
Description: (§1) Human peripheral blood mononuclear cells (PBMCs), consisting of lymphocytes (T, B and NK cells), monocytes and dendritic cells, were freshly isolated from human peripheral blood from healthy donors. Cells were obtained through an IRB approved donor program by iXCells Biotechnologies where all the donors were tested for bacterial and viral infections. Cells were purified from peripheral blood using ficoll gradient centrifugation.
(§2) Fresh or cryopreserved PMBCs were seeded in V-bottom 96-well plate at 0.5-1×10^5 cells per well and incubated overnight at 37° C. with 5% CO2 in RPMI 1640 medium with GlutaMAX supplement, 4.5 g/L D-glucose, 10% Fetal Bovine Serum (FBS), […] Sodium Pyruvate, 1% Penicillin/Streptomycin, 10 mM HEPES and 0.05 mM of β-mercaptoethanol. Freshly isolated or cryopreserved KCs cells were seeded in flat-bottom 96-well plates at 0.6-1.5×10^5 cells/well and incubated overnight at 37° C. 5% CO2 in RPMI 1640 Medium with GlutaMAX supplement, FBS, 1% Penicillin/Streptomycin and 10 mM HEPES. The following day, the cells were primed with 100 ng/mL of lipopolysaccharides (LPS; Sigma Aldrich) in FBS-free RPMI 1640 for 3 h. After the priming step, the media was removed and PBMCs were pre-incubated with serial concentrations of test compounds (0.00017-10 uM) or vehicle (DMSO) for 30 min in FBS-free media prior to addition of the NLRP3 activator. Cells were then stimulated with 10 uM Nigericin (Sigma Aldrich; InvivoGen) for 1.5 h. Plates were centrifuged at 1,500 rpm for 3 minutes to pellet cells and supernatant was transferred into new plates for subsequent experiments.
Viability of compound treated cells was measured using CellTiter-Glo® assay (Promega, Madison, Wis.) that measures the ATP content of cells which is proportional to the number of live cells within a well. This is a counter-screen to establish that the reduction of IL-1β levels in LPS and nigericin stimulated and compound treated cells is not due to cytotoxicity, but rather through the inhibition of the inflammasome pathway. Compounds inhibiting NRLP3 inflammasome activation ultimately increase the viability of LPS and nigericin stimulated cells by blocking NLRP3 mediated pyroptosis that would otherwise lead to cell lysis.

TNFα = TNFα counter-screen in LPS and nigericin stimulated PBMCs; conditions: human PBMCs
Description: as §1, §2
(§3) For ELISA assays cells were seeded into 96-well plates. Post study, supernatants were removed and the levels of mature IL-1β, IL18 and TNFα (Quantikine ELISA, R&D systems) were measured in cell conditioned media by ELISA according to manufacturer's instructions.
TNFα levels of LPS and nigericin stimulated cells were measured by HTRF assay (Cisbio, Bedford, MA). […] Measuring TNFalpha production also serves as a technical counter-screen to eliminate compounds that interfere with the HTRF reagents. Thus compounds that inhibit both IL-1β and TNFα levels are triaged for either being non-selective for inflammasome or interfering with the HTRF readout.

NLRP3 inflammasome [1] = molecular target: T1, NLRP3 inflammasome (Homo sapiens, UniProt Q96P20); experiment: NLRP3 inflammasome activation assay in PBMCs, IL-1β release (ELISA / HTRF); set-up: were freshly isolated from human peripheral blood from healthy donors; StemCells Technologies; host or cells: primary human PBMCs, LPS-primed, nigericin-stimulated; conditions: LPS primed
T1 sequence (Q96P20 whole entry): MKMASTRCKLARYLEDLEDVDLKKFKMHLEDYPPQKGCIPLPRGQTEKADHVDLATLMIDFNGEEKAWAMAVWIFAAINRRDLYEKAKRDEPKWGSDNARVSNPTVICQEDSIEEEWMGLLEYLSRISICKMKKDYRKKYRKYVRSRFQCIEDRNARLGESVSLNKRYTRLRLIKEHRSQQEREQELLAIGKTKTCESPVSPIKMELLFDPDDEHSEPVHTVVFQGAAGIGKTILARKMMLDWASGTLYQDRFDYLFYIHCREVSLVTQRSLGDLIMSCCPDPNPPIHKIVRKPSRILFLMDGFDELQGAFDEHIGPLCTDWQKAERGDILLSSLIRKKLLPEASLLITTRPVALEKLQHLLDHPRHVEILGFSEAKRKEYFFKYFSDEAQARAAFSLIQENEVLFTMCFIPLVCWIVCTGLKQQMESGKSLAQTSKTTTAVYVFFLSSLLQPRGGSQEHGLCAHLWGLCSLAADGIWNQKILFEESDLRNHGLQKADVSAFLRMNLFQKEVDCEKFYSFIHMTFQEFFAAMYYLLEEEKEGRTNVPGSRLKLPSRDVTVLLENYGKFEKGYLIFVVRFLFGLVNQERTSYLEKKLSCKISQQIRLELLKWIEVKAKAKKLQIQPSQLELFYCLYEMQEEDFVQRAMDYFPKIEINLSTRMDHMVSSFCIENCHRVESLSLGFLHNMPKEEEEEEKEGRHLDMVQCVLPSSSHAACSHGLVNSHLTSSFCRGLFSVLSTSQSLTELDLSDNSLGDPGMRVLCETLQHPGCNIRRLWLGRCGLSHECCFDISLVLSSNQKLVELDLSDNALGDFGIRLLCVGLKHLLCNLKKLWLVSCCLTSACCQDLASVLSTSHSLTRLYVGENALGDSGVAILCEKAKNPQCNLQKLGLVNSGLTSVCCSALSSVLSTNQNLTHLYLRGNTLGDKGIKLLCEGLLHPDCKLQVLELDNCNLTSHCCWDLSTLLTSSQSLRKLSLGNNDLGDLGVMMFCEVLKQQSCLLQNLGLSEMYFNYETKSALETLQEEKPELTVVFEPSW
Description: Some of the following assays were used to determine the inhibitory activity of the compounds on the NLRP3 inflammasome using a common inflammasome activation stimuli—nigericin.
as §1, §2, §3
Human frozen PBMCs were purchased from StemCells Technologies. Cells were rapidly thawed in 37° C. water bath and resuspended in fresh assay media consisting of RPMI 1640 Medium containing 1% sodium pyruvate, 10 mM HEPES, 2.5 g/L glucose and 55 μM 2-Mercaptoethanol. Cell density was adjusted to 8.1×10^5 cells/mL. Cells were primed by adding lipopolysaccharide (Invivogen Ultrapure lipopolysaccharide from E. coli, tlrl-3pelps) at a final concentration of 100 ng/mL in cell suspension. 37 μL of cell suspension with LPS was seeded per well of a 384 well plate and incubated for 3 hours at 37° C. and 5% CO2. After priming, PBMCs were preincubated with serially diluted test compounds with starting concentration of 40 μM followed by 2-fold dilution for a 20-point curve or vehicle (DMSO) for 30 min in assay media at 37° C. and 5% CO2. Cells were then stimulated with 10 μM nigericin (Invivogen, tlrl-nig-5) for 90 min at 37° C. and 5% CO2 to activate NLRP3 dependent inflammasome pathway and IL-1β release in cell culture supernatant. Cells were centrifuged at 1200 RPM for 1 min and 40 μL of supernatant was transferred into fresh plates and stored at −80° C. until IL-1β analysis.
16 μL of supernatant was added to white 384 well HTRF plates, followed by addition of 4 μL of HTRF cocktail in each well. Plates were quickly centrifuged, sealed and incubated overnight at room temperature. Next day, HTRF signal was read on a Pherastar and ratio of 665/620 was calculated based on manufacturer's protocol to obtain concentration of IL-1β in cell culture supernatant.

NLRP3 inflammasome [2] = molecular target: T1, NLRP3 inflammasome; experiment: THP-1 ASC-GFP speck assay; set-up: host or cells: THP-1 ASC-GFP cells, PMA-differentiated, LPS-primed, nigericin-stimulated; conditions: THP-1 ASC-GFP cells, PMA differentiated, LPS primed, 10 μM nigericin; read-out: THP1 ASC Speck IC50
Procedure, shortened: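 PMA-differentiated (500 ng/ml, overnight) THP-1 ASC-GFP cells primed with 1 μg/mL LPS for 3 h, preincubated 30 min with compound (top 40 μM, 2-fold, 20 points), then stimulated with 10 μM nigericin for 90 min at 37 °C. After fixation and Hoechst staining, imaging gave the percentage of cells bearing a GFP ASC speck.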

[3] = PBMC, read-out: PBMC TNF α IC50
[4] = 10 uM nigericin, read-out: PBMC IL-1 β IC50
[5] = 10 μM nigericin, read-out: PBMC IL-1β IC50
[6] = human PBMCs, read-out: PBMC CTG IC50

SMILES | IC50 (PBMCs; Homo sapiens, PBMC) | IC50 (TNFα; [3]) | IC50 (NLRP3 inflammasome [1]; [4]) | IC50 (NLRP3 inflammasome [1]; [5]) | IC50 (PBMCs; [6]) | further results
Cn1ccc(S(=N)(=O)NC(=O)Nc2c3c(cc4c2CCC4)CCC3)n1 (centres unmarked) | < 100 nM | > 10000 nM | 1000 to 10000 nM | – | – | –
CN[C@@H]1COc2c(S(=N)(=O)NC(=O)Nc3c(C(C)C)cc(F)cc3C(C)C)cnn2C1 (some centres unmarked) | 100 to 1000 nM | > 10000 nM | 100 to 1000 nM | – | – | –
NS(=O)(=NC(=O)Nc1c2c(c(F)c3c1CCC3)CCC2)c1cnn2c1OCC2 (centres unmarked) | 1000 to 10000 nM | > 10000 nM | < 100 nM | – | – | –
NS(=O)(=NC(=O)Nc1c2c(c(F)c3c1CCC3)CCC2)c1cnn2c1OCCCC2 (centres unmarked) | > 10000 nM | > 10000 nM | < 100 nM | – | – | –
N=S(=O)(NC(=O)Nc1c2c(cc3c1CCC3)CCC2)c1cnn2c1OC[C@@H](NCCF)C2 (some centres unmarked) | 100 to 1000 nM | > 10000 nM | < 100 nM | – | – | –
NS(=O)(=NC(=O)Nc1c2c(c(C(=O)O)c3c1CCC3)CCC2)c1cnn2c1OCCC2 (centres unmarked) | > 10000 nM | > 10000 nM | > 10000 nM | – | – | –
Cn1ccc(S(N)(=O)=NC(=O)Nc2c3c(cc4c2CCC4)CCC3)n1 (racemic) [Example 12, N-((1,2,3,5,6,7-hexahydro-s-indacen-4-yl)carbamoyl)-1-methyl-1H-pyrazole-3-sulfonimidamide] | 6 nM | – | – | 1390 nM | – | IC50 (TNFα; PBMC): > 10000 nM
CO[C@@H]1COc2c(S(N)(=O)=NC(=O)Nc3c(C(C)C)cc(F)cc3C(C)C)cnn2C1 (mixture of isomers) [Example 15, (6S)—N′-((4-fluoro-2,6-diisopropylphenyl)carbamoyl)-6-methoxy-6,7-dihydro-5H-pyrazolo[5,1-b][1,3]oxazine-3-sulfonimidamide] | 95 nM | – | – | 300 nM | – | IC50 (TNFα; PBMC): > 10000 nM
CN[C@@H]1COc2c(S(N)(=O)=NC(=O)Nc3c(C(C)C)cc(F)cc3C(C)C)cnn2C1 (mixture of isomers) [Example 16, (6S)—N′-((4-fluoro-2,6-diisopropylphenyl)carbamoyl)-6-(methylamino)-6,7-dihydro-5H-pyrazolo[5,1-b][1,3]oxazine-3-sulfonimidamide] | 131 nM | – | – | 270 nM | – | IC50 (TNFα; PBMC): > 10000 nM
CN[C@@H]1COc2c(S(N)(=O)=NC(=O)Nc3c4c(cc5c3CCC5)CCC4)cnn2C1 (mixture of isomers) [Example 17, (6S)—N′-((1,2,3,5,6,7-hexahydro-s-indacen-4-yl)carbamoyl)-6-(methylamino)-6,7-dihydro-5H-pyrazolo[5,1-b][1,3]oxazine-3-sulfonimidamide] | 8 nM | – | – | 19 nM | – | IC50 (TNFα; PBMC): > 10000 nM
CO[C@@H]1COc2c(S(N)(=O)=NC(=O)Nc3c4c(c(F)c5c3CCC5)CCC4)cnn2C1 (mixture of isomers) [Example 18, (6S)—N′-((8-fluoro-1,2,3,5,6,7-hexahydro-s-indacen-4-yl)carbamoyl)-6-methoxy-6,7-dihydro-5H-pyrazolo[5,1-b][1,3]oxazine-3-sulfonimidamide] | 0.1 nM | – | – | 16 nM | – | IC50 (TNFα; PBMC): > 10000 nM
NS(=O)(=NC(=O)Nc1c2c(c(F)c3c1CCC3)CCC2)c1cnn2c1OCCC2 (single isomer, unassigned) [Example 21] | – | – | – | 4720 nM | 1050 nM | IC50 (TNFα; PBMC): > 10000 nM
COC1COc2c(S(N)(=O)=NC(=O)Nc3c(C(C)C)cc(F)cc3C(C)C)cnn2C1 (single isomer, unassigned) [Example 23] | – | – | – | 8820 nM | 39 nM | IC50 (TNFα; PBMC): > 10000 nM
COC1COc2c(S(N)(=O)=NC(=O)Nc3c(C(C)C)cc(F)cc3C(C)C)cnn2C1 (single isomer, unassigned) [Example 24] | – | – | – | 240 nM | 127 nM | IC50 (TNFα; read-out: PBMC TNFα IC50): > 10000 nM
CNC1COc2c(S(N)(=O)=NC(=O)Nc3c(C(C)C)cc(F)cc3C(C)C)cnn2C1 (single isomer, unassigned) [Example 28] | – | – | – | > 10000 nM | – | IC50 (TNFα; read-out: PBMC TNFα IC50): > 10000 nM; IC50 (NLRP3 inflammasome [2]): 4400 nM
CN(C)C1COc2c(S(N)(=O)=NC(=O)Nc3c4c(cc5c3CCC5)CCC4)cnn2C1 (single isomer, unassigned) [Example 34] | – | – | – | 6 nM | 4 nM | IC50 (TNFα; read-out: PBMC TNFα IC50): > 10000 nM
CNC1COc2c(S(N)(=O)=NC(=O)Nc3c4c(c(F)c5c3CCC5)CCC4)cnn2C1 (single isomer, unassigned) [Example 40] | – | – | – | 4.9 nM | 3 nM | IC50 (NLRP3 inflammasome [2]): 8.8 nM
CNC1COc2c(S(N)(=O)=NC(=O)Nc3c4c(c(F)c5c3CCC5)CCC4)cnn2C1 (single isomer, unassigned) [Example 41] | – | – | – | 6800 nM | 1310 nM | IC50 (NLRP3 inflammasome [2]): 430 nM
NS(=O)(=NC(=O)Nc1c2c(cc3c1CCC3)CCC2)c1cnn2c1OCCC2 (single isomer, unassigned) [drawing 661] | < 100 nM | > 10000 nM | < 100 nM | – | – | –
N=S(=O)(NC(=O)Nc1c2c(cc3c1CCC3)CCC2)c1cnn2c1OCCC2 (single isomer, unassigned) [drawing 662] | – | – | 1000 to 10000 nM | – | < 100 nM | IC50 (TNFα; read-out: PBMC TNF α IC50): > 10000 nM
NS(=O)(=NC(=O)Nc1c2c(c(F)c3c1CCC3)CCC2)c1cnn2c1OCCC2 (single isomer, unassigned) [drawing 669] | < 100 nM | > 10000 nM | < 100 nM | – | – | –
N=S(=O)(NC(=O)Nc1c2c(c(F)c3c1CCC3)CCC2)c1cnn2c1OCCC2 (single isomer, unassigned) [drawing 670] | – | – | 1000 to 10000 nM | – | 100 to 1000 nM | IC50 (TNFα; read-out: PBMC TNF α IC50): > 10000 nM
CN[C@@H]1COc2c(S(=N)(=O)NC(=O)Nc3c(C(C)C)cc(F)cc3C(C)C)cnn2C1 (single isomer, unassigned) [drawing 675] | > 10000 nM | > 10000 nM | 100 to 1000 nM | – | – | –
CN[C@@H]1COc2c(S(=N)(=O)NC(=O)Nc3c(C(C)C)cc(F)cc3C(C)C)cnn2C1 (single isomer, unassigned) [drawing 676] | – | – | > 10000 nM | – | – | IC50 (TNFα; read-out: PBMC TNF α IC50): > 10000 nM
CO[C@@H]1COc2c(S(=N)(=O)NC(=O)Nc3c(C(C)C)cc(F)cc3C(C)C)cnn2C1 (some centres unmarked) [drawing 663] | < 100 nM | > 10000 nM | 100 to 1000 nM | – | – | –
CN[C@@H]1COc2c(S(=N)(=O)NC(=O)Nc3c4c(cc5c3CCC5)CCC4)cnn2C1 (some centres unmarked) [drawing 665] | < 100 nM | > 10000 nM | < 100 nM | – | – | –
